Source: publication PMC5876388 (Scientific Reports, 2018)

Key:
NICD [1] = test: Western blot in HPB-ALL cells; format: cell-based, human; details: 10 μM, 72 h
Method: (§1) HPB-ALL cells (1 × 10^4 cells per well) were incubated in 96-well black plates at 37 °C for 72 h. Media also contained different concentrations of compound. After incubation, AlamarBlue was added 10 μL per well. After incubation for 4 h, using a fluorescence plate reader, fluorescence was measured and cell viability was determined. Data are presented as the mean with SD from three independent experiments. […] The effect on protein expression was analyzed by Western blotting. β-Actin was used as internal control. (D,E) Relative protein levels of NICD and HES1 analyzed by densitometry. Data are presented as the mean with SD from three independent experiments. *P < 0.05 is considered statistically significant. P values were analyzed by Student’s t test.
(§2) HPB-ALL cells were incubated in a 6 cm dish in 5 mL of RPMI-1640 medium with 10% FBS, Streptomycin (100 μg/mL) and Penicillin (100 unit/mL) at 5 × 10^5 cells per dish (1 × 10^6 cells per dish, when treatment with MG132). Media also contained different concentrations of compound. Cells were incubated at 37 °C for 72 h (12 h, when treatment with MG132). After incubation, cells were centrifuged and collected, and then washed with 500 μL of PBS twice. To prepare cell lysate and confirm protein expression levels, the same method as described above was used.

HES1 = test: Western blot in HPB-ALL cells; format: cell-based, human; details: 10 μM, 72 h
Method: as §1, §2

[2] = Cytotoxicity test, AlamarBlue; details: human, HPB-ALL cells
Method: as §1
HPB-ALL cells (1 × 10^4 cells per well) were incubated in 96-well black plates in 100 μL of RPMI-1640 medium with 10% FBS, Streptomycin (100 μg/mL) and Penicillin (100 unit/mL). Media also contained different concentrations of compound. Cells were incubated at 37 °C for 72 h. After incubation, AlamarBlue (00–025, DAL1025; Thermo Fisher Scientific Inc., Waltham, USA) was added 10 μL per well. After incubation for 4 h, using a fluorescence plate reader (Thermo Fisher Scientific Inc., Waltham, USA), fluorescence was measured and cell viability was determined.

NICD [3] = test: Western blot in assay cells; format: cell-based, mouse; details: LS174T Notch cells, 12 h
Method: (§3) After another 12 h incubation with 50 ng/mL Dox, and cells were washed with PBS. Medium was changed to fresh medium with 2 and incubated for 12 h. […] (C–F) Relative protein levels analyzed by densitometry. […] P values were analyzed by Student’s t test.
(§4) Before another 12 h incubation, 50 ng/mL of doxycycline was added into each dish. Then, medium was changed to fresh medium with each compound. After 12 h incubation, cells were washed with PBS (500 μL) twice and then cells were collected by scraping. Using lysis buffer (20 mM Tris-HCl pH 7.4, 150 mM NaCl, 0.5% sodium deoxycholate, 10 mM EDTA, 1 mM sodium orthovanadate, and 0.1 mM NaF) containing a 1% […] inhibiotor cocktail (Nacalai Tesque, Tokyo, Japan), protein lysate was prepared. Protein lysates were separated by a 7.5%, 10%, 12.5% and 15% SDS-PAGE electrophoresis. Proteins were then transferred to a PVDF membrane (Bio-Rad Laboratories, Inc. Hercules, USA) electrophoretically. The membrane was incubated for 1 h with TBST (10 mM Tris-HCl pH 7.4, 100 mM NaCl and 0.1% Tween 20) containing 5% skimmed milk. […]

Notch1(1704–2531) = test: Western blot in assay cells; format: cell-based, mouse; details: LS174T Notch cells, 12 h
Method: as §3, §4

APH-1 = test: Western blot in HPB-ALL cells; format: cell-based, human; details: 72 h
Method: (§5) (A) Schematic representation of γ-secretase complex. γ-Secretase is composed of four membrane proteins: presenilin1 (PS1), nicastrin (NCT), anterior pharynx defective 1 (APH-1) and presenilin enhancer 2 (PEN-2). […] (E,F) Relative protein levels of nicastrin mature and immature analyzed by densitometry. […] P values were analyzed by Student’s t test.
(§6) Media also contained different concentrations of compound. Cells were incubated at 37 °C for 72 h (12 h, when treatment with MG132). After incubation, cells were centrifuged and collected, and then washed with 500 μL of PBS twice. To prepare cell lysate and confirm protein expression levels, the same method as described above was used.

PEN-2 = test: Western blot in HPB-ALL cells; format: cell-based, human; details: 72 h
Method: as §5, §6

PS1 = test: Western blot in HPB-ALL cells; format: cell-based, human; details: 72 h
Method: as §5, §6

nicastrin = target: T1, nicastrin (Homo sapiens, UniProt Q92542); test: Western blot in HPB-ALL cells; format: cell-based
T1 construct: endogenous in cells; host or cells: HPB-ALL
T1 sequence (Q92542 34-709): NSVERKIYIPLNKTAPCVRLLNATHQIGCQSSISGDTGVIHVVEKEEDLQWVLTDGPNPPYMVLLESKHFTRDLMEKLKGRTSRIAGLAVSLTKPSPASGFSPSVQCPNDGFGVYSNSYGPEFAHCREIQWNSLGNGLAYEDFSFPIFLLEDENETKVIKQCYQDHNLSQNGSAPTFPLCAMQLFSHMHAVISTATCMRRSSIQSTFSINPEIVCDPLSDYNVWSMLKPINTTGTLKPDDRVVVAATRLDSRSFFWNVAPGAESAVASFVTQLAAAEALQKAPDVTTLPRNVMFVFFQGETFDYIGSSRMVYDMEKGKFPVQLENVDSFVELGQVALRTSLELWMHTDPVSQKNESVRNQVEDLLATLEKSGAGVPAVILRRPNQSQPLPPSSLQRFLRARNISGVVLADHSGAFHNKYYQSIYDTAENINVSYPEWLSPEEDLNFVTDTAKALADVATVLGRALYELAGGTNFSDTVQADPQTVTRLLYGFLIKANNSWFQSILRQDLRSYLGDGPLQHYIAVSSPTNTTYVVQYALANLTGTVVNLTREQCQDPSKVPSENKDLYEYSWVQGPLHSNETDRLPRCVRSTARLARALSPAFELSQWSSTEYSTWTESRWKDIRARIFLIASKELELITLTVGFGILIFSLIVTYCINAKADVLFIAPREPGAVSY
Method: as §5, §6

## COc1c(O)cc2oc3cc(O)c(CC=C(C)C)c(O)c3c(=O)c2c1C/C=C(\C)CCC=C(C)C [Compound 2, cowanin]
NICD [1]
  expression of NICD: reduced
HES1
  expression of HES1: reduced
[2]
  IC50 at 72 h: 7.5 µM
  viability at 12 h, 15 µM: 98%
NICD [3]
  NICD level: reduced dose dependently
Notch1(1704–2531)
  expression of Notch1(1704–2531): increased
APH-1
  expression of APH-1: didn’t affect
PEN-2
  expression of PEN-2: didn’t affect
PS1
  expression of PS1: didn’t affect
nicastrin; 15 μM, 12 h, densitometry
  immature versus mature nicastrin: decreased immature nicastrin stronger than mature nicastrin
nicastrin; 72 h, Western blot
  nicastrin levels: reduced
nicastrin; cowanin 15 μM + MG132 5 μM, 12 h
  decrease in nicastrin expression with proteasome inhibitor MG132: not so marked
